US12581252B2, “Substituted pyrrolo[3,4-b]pyridines as PI3K-α inhibitors” (Relay Therapeutics, Inc., priority 2020, dated 2026)

What follows are compounds tested against H1047R PIK3CA enzyme (Homo sapiens, UniProt P42336, H1047R) (assay: ADP-Glo Biochemical PIK3CA Kinase Assay).
Sequence of H1047R PIK3CA enzyme (P42336 whole entry H1047R): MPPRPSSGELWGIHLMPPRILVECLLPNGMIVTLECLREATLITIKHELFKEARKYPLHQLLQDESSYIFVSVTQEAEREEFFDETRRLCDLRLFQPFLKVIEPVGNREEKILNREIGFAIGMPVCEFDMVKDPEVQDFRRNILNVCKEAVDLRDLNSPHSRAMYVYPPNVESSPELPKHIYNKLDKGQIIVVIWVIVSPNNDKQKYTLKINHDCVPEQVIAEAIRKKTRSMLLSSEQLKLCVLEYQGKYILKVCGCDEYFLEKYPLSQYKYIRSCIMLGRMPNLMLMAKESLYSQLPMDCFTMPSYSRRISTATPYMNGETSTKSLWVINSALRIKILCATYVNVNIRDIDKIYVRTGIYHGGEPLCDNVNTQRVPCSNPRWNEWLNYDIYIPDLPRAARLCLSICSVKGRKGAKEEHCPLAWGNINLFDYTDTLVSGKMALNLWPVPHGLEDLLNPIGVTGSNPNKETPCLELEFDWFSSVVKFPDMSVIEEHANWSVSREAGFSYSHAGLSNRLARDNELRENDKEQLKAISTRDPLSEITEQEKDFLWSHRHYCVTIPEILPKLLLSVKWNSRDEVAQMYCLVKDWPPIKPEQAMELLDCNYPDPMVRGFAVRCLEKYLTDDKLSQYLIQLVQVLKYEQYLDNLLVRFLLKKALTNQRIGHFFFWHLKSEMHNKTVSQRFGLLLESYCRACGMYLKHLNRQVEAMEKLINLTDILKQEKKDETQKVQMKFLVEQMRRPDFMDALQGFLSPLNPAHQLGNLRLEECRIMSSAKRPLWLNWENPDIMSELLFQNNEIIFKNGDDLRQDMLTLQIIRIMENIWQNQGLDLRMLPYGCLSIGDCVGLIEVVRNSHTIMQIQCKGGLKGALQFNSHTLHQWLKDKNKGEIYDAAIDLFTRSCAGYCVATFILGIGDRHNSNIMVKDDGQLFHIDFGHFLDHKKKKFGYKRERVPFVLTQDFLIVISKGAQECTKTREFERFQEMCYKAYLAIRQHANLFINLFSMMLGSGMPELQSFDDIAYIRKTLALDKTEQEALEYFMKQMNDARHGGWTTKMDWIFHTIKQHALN
Sequence of H1047R PIK3CA enzyme (P27986 whole entry partner): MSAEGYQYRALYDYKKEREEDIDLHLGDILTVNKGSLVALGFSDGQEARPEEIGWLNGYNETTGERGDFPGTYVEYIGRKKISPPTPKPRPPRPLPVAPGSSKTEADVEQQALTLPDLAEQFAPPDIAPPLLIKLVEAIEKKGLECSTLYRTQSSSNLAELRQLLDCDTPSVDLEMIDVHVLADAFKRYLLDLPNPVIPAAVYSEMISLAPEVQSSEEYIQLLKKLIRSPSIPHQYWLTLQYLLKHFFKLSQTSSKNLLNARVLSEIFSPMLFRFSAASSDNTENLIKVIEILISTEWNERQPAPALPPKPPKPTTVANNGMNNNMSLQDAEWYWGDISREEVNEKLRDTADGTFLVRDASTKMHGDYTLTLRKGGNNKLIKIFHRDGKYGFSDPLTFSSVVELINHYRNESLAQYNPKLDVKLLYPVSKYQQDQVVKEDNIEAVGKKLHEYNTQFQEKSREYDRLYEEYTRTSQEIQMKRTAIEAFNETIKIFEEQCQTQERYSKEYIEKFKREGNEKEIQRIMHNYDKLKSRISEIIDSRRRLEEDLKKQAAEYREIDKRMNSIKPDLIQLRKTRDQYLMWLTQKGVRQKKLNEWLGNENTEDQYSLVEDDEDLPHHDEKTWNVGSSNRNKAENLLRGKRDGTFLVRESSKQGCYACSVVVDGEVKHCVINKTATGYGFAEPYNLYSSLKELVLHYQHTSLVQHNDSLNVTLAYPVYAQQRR

| SMILES | IC50 |
| --- | --- |
| CCn1cc(-c2cc(NC(=O)c3cc(F)cc(C(F)(F)F)c3)c3c(n2)C(=O)N[C@@H]3c2cc(F)ccc2Cl)ccc1=O [Compound I-614] | 1000 to 10000 nM |
| COc1cccc2c(C(=O)Nc3cccc4c3C(c3ccccc3C)NC4=O)csc12 (centres unmarked) [Compound I-198] | 10000 to 100000 nM |
| C=Cc1ccc(NC(=O)c2nsc3ccccc23)c2c1C(=O)NC2c1ccccc1C (centres unmarked) [Compound I-205] | 100 to 500 nM |
| O=C(Nc1cc(Br)cc2c1C(c1cc(F)ccc1Cl)NC2=O)c1cc(Cl)ccc1OC(F)(F)F (centres unmarked) [Compound I-859] | 1000 to 10000 nM |
| COc1ccc2snc(C(=O)Nc3cccc4c3C(c3ccccc3C)NC4=O)c2c1 (centres unmarked) [Compound I-129] | 10000 to 100000 nM |
| O=C(CN1CCCC1)Nc1cc(-c2ccc3ncnn3c2)cc2c1C(c1cc(F)ccc1Cl)NC2=O (centres unmarked) [Compound I-1783] | 10000 to 100000 nM |
| O=C(O)Cc1cc(NC(=O)c2cc(F)cc(C(F)(F)F)c2)c2c(c1)C(=O)NC2c1cc(F)ccc1Cl (centres unmarked) [Compound I-399] | ≤ 100 nM |
| O=C(Nc1cccc2c1C(c1ccc(-c3ccccc3)cc1Cl)NC2=O)c1cc(F)cc(C(F)(F)F)c1 (centres unmarked) [Compound I-421] | 1000 to 10000 nM |
| O=C(Nc1cc(Br)cc2c1C(c1cc(F)ccc1Cl)NC2=O)c1ccc(C(F)F)cc1 (centres unmarked) [Compound I-572] | 1000 to 10000 nM |
| N#Cc1nn(C(F)F)cc1-c1cc(NC(=O)c2cc(F)cc(C(F)(F)F)c2)c2c(c1)C(=O)N[C@@H]2c1cc(F)ccc1Cl [Compound I-1889] | 1000 to 10000 nM |
| O=C1N[C@@H](c2cc(F)ccc2Cl)c2c(NC(=O)N3C[C@@H](O)c4cc(F)ccc43)cc(-n3ccnn3)cc21 (single isomer, unassigned) [Compound I-2370] | 500 to 1000 nM |
| O=C(Nc1cc(NC(=O)c2cc(F)cc(C(F)(F)F)c2)c2c(c1)C(=O)NC2c1cc(F)ccc1Cl)c1cccnc1 (centres unmarked) [Compound I-1356] | ≤ 100 nM |
| O=C(Nc1cc(Br)cc2c1C(c1cc(F)ccc1Cl)NC2=O)c1ccc(F)c(C(F)(F)F)c1 (centres unmarked) [Compound I-566] | 500 to 1000 nM |
| O=C(Nc1cc(CS(=O)(=O)N2CCOCC2)cc2c1[C@H](c1cc(F)ccc1Cl)NC2=O)c1cc(F)cc(C(F)(F)F)c1 [Compound I-1485] | ≤ 100 nM |
| CC12CC3CC(C)(C1)CC(C(=O)Nc1cccc4c1C(c1cc(F)ccc1Cl)NC4=O)(C3)C2 (centres unmarked) [Compound I-1074] | 100 to 500 nM |

Second part, the compound after the results:

| IC50 | SMILES |
| --- | --- |
| 10000 to 100000 nM | O=C1NC(c2cc(F)ccc2Cl)c2c1cc(-c1ccc3ncnn3c1)cc2N1CCn2cc(C(F)(F)F)nc2C1 (centres unmarked) [Compound I-2039] |
| 10000 to 100000 nM | O=C1N[C@@H](c2cc(F)ccc2Cl)c2c(N[C@@H]3CCOc4ccccc43)cc(Br)cc21 (racemic) [Compound I-2014] |
| 1000 to 10000 nM | O=C(Nc1cc(Br)cc2c1C(c1cc(F)ccc1Cl)NC2=O)c1cc(Cl)cc(F)c1Cl (centres unmarked) [Compound I-694] |
| 1000 to 10000 nM | O=C(Nc1cc(Br)cc2c1[C@@H](c1cc(F)ccc1C(F)F)NC2=O)c1cc(F)cc(C(F)(F)F)c1 [Compound I-798] |
| ≤ 100 nM | COCC(=O)Nc1cc(NC(=O)c2cc(F)cc(C(F)(F)F)c2)c2c(c1)C(=O)NC2c1cc(F)ccc1Cl (centres unmarked) [Compound I-346] |
| 1000 to 10000 nM | O=C(Nc1cc(-c2cn3ncnc3cn2)cc2c1[C@@H](c1cc(F)ccc1C(F)F)NC2=O)c1cc(F)cc(C(F)(F)F)c1 (single isomer, unassigned) [Compound I-2233] |
| ≤ 100 nM | O=C(Nc1cc(-c2cnn(-c3cnccn3)c2)cc2c1C(c1cc(F)ccc1Cl)NC2=O)c1cc(F)cc(C(F)(F)F)c1 (centres unmarked) [Compound I-1608] |
| 1000 to 10000 nM | CCCCc1ccc(Cl)c(C2NC(=O)c3cccc(NC(=O)c4cc(O)cc(C(F)(F)F)c4)c32)c1 (centres unmarked) [Compound I-2391] |
| ≤ 100 nM | O=C(Nc1cc(N2CCc3ncccc32)cc2c1C(c1cc(F)ccc1Cl)NC2=O)c1cc(F)cc(C(F)(F)F)c1 (centres unmarked) [Compound I-1260] |
| 100 to 500 nM | O=C(Nc1cc(-c2ccc3c(c2)OC(F)(F)O3)cc2c1C(c1cc(F)ccc1Cl)NC2=O)c1cc(F)cc(C(F)(F)F)c1 (centres unmarked) [Compound I-738] |
| ≤ 100 nM | O=C(Nc1cc(N2CCc3cnccc32)cc2c1C(c1cc(F)ccc1Cl)NC2=O)c1cc(F)cc(C(F)(F)F)c1 (centres unmarked) [Compound I-1261] |
